Results as given in PubChem BioAssay AID2060363 (Molecular Pharmacology Branch, DTP, NCI, 2025).
Where “and” joins values, the source holds several entries; their conditions need not be identical. Equal entries are not always repeated.

Tested on: 156681-154-R-J1-PDC tumor spheroids, viability % test/control
Test: Anticancer human tumor 156681-154-R-J1-PDC patient-derived melanoma cell line growth inhibition [TAK]
Details: spheroids with HUVEC and MSC; for viability, T/C: stronger effect = lower value; active means viability on the fitted dose curve at most 10% of control; inactive means the rest
From the text: Combinatorial screen of targeted agents with TAK-243 and ipatasertib in multi-cell type tumor spheroids
A high-throughput screen of multi-cell type tumor spheroids was designed to identify active combinations of targeted small molecules and TAK-243 or ipatasertib. Complex spheroids include a stromal component modeled by human endothelial cells (HUVEC) and fibroblasts modeled by human mesenchymal stem cells (MSCs). The concentration ranges selected for each drug and investigational agent were based upon clinically achievable concentrations if the clinical Cmax of the agent was known.
Compounds. The drugs and investigational agents: TAK-243 (785004), ipatasertib (767898), everolimus (733504), selumetinib (741078), bortezomib (756655), trametinib (758246), ixazomib (758254), vemurafenib (761431), dabrafenib (764134), sapanisertib (764658), alpelisib (765974), and copanlisib (816437), were obtained from the National Cancer Institute (NCI) Developmental Therapeutics Program Chemical Repository. The FDA-approved anticancer drug set is available from the NCI Developmental Therapeutics Program. […] The stock solutions were prepared in dimethyl sulfoxide (DMSO, Sigma-Aldrich, St. Louis, MO, cat. D2650) at 800-fold the tested concentration and stored at -70 degrees C prior to their use. All drugs and investigational agents were tested over a range starting from a high concentration at or near the clinical Cmax and decreasing in half-log increments. If the clinical Cmax for an agent had not been determined, the highest concentration tested was 10 microM.
NCI60 Cell Culture. NCI60 cell lines were obtained from the NCI Developmental Therapeutics Program Tumor Repository. For each lot of cells, the Repository performed Applied Biosystems AmpFLSTR Identifiler testing with PCR amplification to confirm consistency with the published Identifier STR profile for each cell line. Cells were kept in continuous culture for no more than 20 passages. The optimal seeding densities for each of the cell lines at each time point assessed were determined prior to performing the concentration response studies. Briefly, the NCI60 human tumor lines were grown as monolayers in RPMI 1640 medium supplemented with 10% FBS and 2 mmol/L L-glutamine.
An additional 2 lines were from the NCI60 cell line panel including melanomas, MALME-3M and SK-MEL-2. Pooled donor human umbilical vein endothelial cells (HUVEC, Lonza, cat. CC-2519) and human mesenchymal stem cells (hMSC, Lonza, cat. PT-2501) were purchased from Lonza (Walkersville, MD).
PDMR cell lines were grown in complete medium (DC medium): Dulbecco's modified Eagle's medium (DMEM)/F12 supplemented with 5% fetal bovine serum (FBS), 2 mM L-glutamine, 100 U/mL penicillin and 100 µg/ml streptomycin, 0.4 µg/ml hydrocortisone, 10 ng/ml epidermal growth factor (EGF) recombinant human protein, 24 µg/mL adenine, and 0.1 mg/mL primocin. During culture from frozen stock vials, PDMR cells were cultured in the same medium containing 10 µM Y-27632 (see Table 3). The PDCs were cultured in complete DMEM/F12 media without 10 microM Y-27632 dihydrochloride for at least two passages prior to the screen. The pooled donor HUVEC and hMSC were cultured in endothelial cell growth medium 2 (PromoCell, Heidelberg, Germany, cat. C-22011) and mesenchymal stem cell growth medium 2 (PromoCell, cat. C-28009), respectively. For all experiments, HUVEC and hMSC were used at passages </=5.
For the pre-screen, cell seeding densities were determined from a titration spanning the range from 5,000 to 313 cells per well. The mct-spheroids including 60% malignant cells, 25% HUVEC and 15% MSC dispensed as a mixture into U-bottom Ultra-Low Attachment 384-well plates (Corning, NY)
High-throughput Drug Combination Screening.
Prior to their inoculation into 384-well plates, malignant cells, HUVEC, and hMSC were removed from T flasks using TrypLE express (Thermo Fisher Scientific, cat. 12605036) and harvested by centrifugation for 5 min at 233 x g. […]

[1] = curve of first compound, second compound 0.3 µM
[2] = curve of first compound, second compound 0.949 µM
[3] = curve of first compound, second compound 3 µM
[4] = curve of first compound, second compound 9.49 µM
[5] = curve of first compound, second compound 30 µM
[6] = second compound 0.3 µM, first compound 0.00316 µM
[7] = second compound 0.3 µM, first compound 0.01 µM
[8] = second compound 0.949 µM, first compound 0.00316 µM
[9] = second compound 0.949 µM, first compound 0.01 µM
[10] = second compound 3 µM, first compound 0.00316 µM
[11] = second compound 3 µM, first compound 0.01 µM
[12] = second compound 9.49 µM, first compound 0.00316 µM
[13] = second compound 9.49 µM, first compound 0.01 µM
[14] = second compound 30 µM, first compound 0.00316 µM
[15] = second compound 30 µM, first compound 0.01 µM
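Further: spheroids exposed to compounds for 7 days before the endpoint.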

CC(C)CC(NC(=O)C(Cc1ccccc1)NC(=O)c1cnccn1)B(O)O (configuration not stated) + CC(C)NCC(C(=O)N1CCN(c2ncnc3c2C(C)CC3O)CC1)c1ccc(Cl)cc1
< 0.0316 nM: IC50 [4] | IC50 [5]
inactive: viability, T/C (second compound 0.3 µM, first compound 31.6 pM) 98.5% | viability, T/C (second compound 0.3 µM, first compound 0.0001 µM) 97% | viability, T/C (second compound 0.3 µM, first compound 0.000316 µM) 91.9% | viability, T/C (second compound 0.3 µM, first compound 0.001 µM) 97.3% | viability, T/C [6] 23.9% | viability, T/C (second compound 0.949 µM, first compound 31.6 pM) 85.2% | viability, T/C (second compound 0.949 µM, first compound 0.0001 µM) 87.4% | viability, T/C (second compound 0.949 µM, first compound 0.000316 µM) 91% | viability, T/C (second compound 0.949 µM, first compound 0.001 µM) 90.1% | viability, T/C (second compound 3 µM, first compound 31.6 pM) 63.9% | viability, T/C (second compound 3 µM, first compound 0.0001 µM) 67.6% | viability, T/C (second compound 3 µM, first compound 0.000316 µM) 66% | viability, T/C (second compound 3 µM, first compound 0.001 µM) 66.7% | viability, T/C [10] 15.7% | viability, T/C (second compound 9.49 µM, first compound 31.6 pM) 40.6% | viability, T/C (second compound 9.49 µM, first compound 0.0001 µM) 39% | viability, T/C (second compound 9.49 µM, first compound 0.000316 µM) 37.8% | viability, T/C (second compound 9.49 µM, first compound 0.001 µM) 37.6% | viability, T/C [12] 7.12% | viability, T/C (second compound 30 µM, first compound 31.6 pM) 17.8% | viability, T/C (second compound 30 µM, first compound 0.0001 µM) 18.6% | viability, T/C (second compound 30 µM, first compound 0.000316 µM) 16.9% | viability, T/C (second compound 30 µM, first compound 0.001 µM) 17.3%
2.09 nM: IC50 [1]
active: viability, T/C [7] 0.32% | viability, T/C [8] 9.77% | viability, T/C [9] 0.19% | viability, T/C [11] 0.22% | viability, T/C [13] 0.21% | viability, T/C [14] 1.86% | viability, T/C [15] 0.31%
1.44 nM: IC50 [3]
1.76 nM: IC50 [2]

COc1c(OCCCN2CCOCC2)ccc2c3n(c(=NC(=O)c4cnc(N)nc4)nc12)CCN3 + CC(C)NCC(C(=O)N1CCN(c2ncnc3c2C(C)CC3O)CC1)c1ccc(Cl)cc1
16.8 nM: IC50 [3]
active: viability, T/C (second compound 0.3 µM, first compound 1 µM) 2.36% | viability, T/C (second compound 0.949 µM, first compound 0.316 µM) 6.84% | viability, T/C (second compound 0.949 µM, first compound 1 µM) 1.52% | viability, T/C (second compound 3 µM, first compound 0.316 µM) 3.81% | viability, T/C (second compound 3 µM, first compound 1 µM) 1.29% | viability, T/C (second compound 9.49 µM, first compound 0.316 µM) 2.36% | viability, T/C (second compound 9.49 µM, first compound 1 µM) 1.24% | viability, T/C (second compound 30 µM, first compound 0.0316 µM) 6.36% | viability, T/C (second compound 30 µM, first compound 0.1 µM) 3.28% | viability, T/C (second compound 30 µM, first compound 0.316 µM) 0.7% | viability, T/C (second compound 30 µM, first compound 1 µM) 0.29%
51.2 nM: IC50 [2]
inactive: viability, T/C [6] 94.6% | viability, T/C [7] 91.4% | viability, T/C (second compound 0.3 µM, first compound 0.0316 µM) 70.6% | viability, T/C (second compound 0.3 µM, first compound 0.1 µM) 38.3% | viability, T/C (second compound 0.3 µM, first compound 0.316 µM) 11.3% | viability, T/C [8] 86.7% | viability, T/C [9] 85.1% | viability, T/C (second compound 0.949 µM, first compound 0.0316 µM) 61% | viability, T/C (second compound 0.949 µM, first compound 0.1 µM) 33.3% | viability, T/C [10] 67.4% | viability, T/C [11] 56.6% | viability, T/C (second compound 3 µM, first compound 0.0316 µM) 40.7% | viability, T/C (second compound 3 µM, first compound 0.1 µM) 21.7% | viability, T/C [12] 30.9% | viability, T/C [13] 35.9% | viability, T/C (second compound 9.49 µM, first compound 0.0316 µM) 18.5% | viability, T/C (second compound 9.49 µM, first compound 0.1 µM) 9.13% | viability, T/C [14] 13.6% | viability, T/C [15] 11.5%
65.8 nM: IC50 [1]
< 3.16 nM: IC50 [4] | IC50 [5]

COC1CC2CCC(C)C(O)(O2)C(=O)C(=O)N2CCCCC2C(=O)OC(C(C)CC2CCC(OCCO)C(OC)C2)CC(=O)C(C)C=C(C)C(O)C(OC)C(=O)C(C)CC(C)C=CC=CC=C1C (configuration not stated)
92.9 nM and > 100 nM: IC50 (curve of compound)
inactive: viability, T/C (compound 0.000316 µM) 98.5% and 87% | viability, T/C (compound 0.001 µM) 81.8% and 87.3% | viability, T/C (compound 0.00316 µM) 70% and 71.2% | viability, T/C (compound 0.01 µM) 59.4% and 64.1% | viability, T/C (compound 0.0316 µM) 62.3% and 59.9% | viability, T/C (compound 0.1 µM) 46% and 51.8%
